Several values for one entry are separate records, joined by “and”; a condition that tells them apart may be missing. Equal values may be shown once.
Experiments:
PPM1D1–420 [1] = target: T1, PPM1D1–420 (Homo sapiens, UniProt O15297); test: Isothermal titration calorimetry (ITC); type: binding; design: DH / DS: unit not given here; conditions: Fig 3F
T1 construct: PPM1D1–420 was PCR-amplified from the synthesized gene with BsaI sites; His(6)-SUMO (N, cleaved yes); made in house; host or cells: E. coli BL21 (DE3)
T1 sequence (O15297 1-420): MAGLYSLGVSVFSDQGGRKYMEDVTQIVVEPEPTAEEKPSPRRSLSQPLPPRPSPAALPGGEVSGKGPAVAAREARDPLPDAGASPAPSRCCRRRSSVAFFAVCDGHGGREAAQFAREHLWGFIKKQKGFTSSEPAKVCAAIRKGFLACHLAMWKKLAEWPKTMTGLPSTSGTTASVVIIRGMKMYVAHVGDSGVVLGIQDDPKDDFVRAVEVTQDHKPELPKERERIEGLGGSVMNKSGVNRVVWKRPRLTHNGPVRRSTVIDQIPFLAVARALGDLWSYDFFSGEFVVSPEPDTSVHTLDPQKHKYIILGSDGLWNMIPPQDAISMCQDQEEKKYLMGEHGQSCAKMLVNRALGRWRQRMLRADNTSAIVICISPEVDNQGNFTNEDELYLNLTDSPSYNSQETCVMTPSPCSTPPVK
Description: Assessments of the analog of GSK2830371 (analog 1d) binding to wild-type and mutant proteins were conducted using an Auto-iTC200 microcalorimeter (Malvern) (see section on synthesis of analog 1d below). The protein was dialyzed extensively into 25 mM HEPES (pH 7.4), 150 mM NaCl, 10 mM MgCl2 and 1 mM TCEP. The dialyzed protein was used to prepare fresh working solutions of protein (20 µM) and analog 1d (200 µM) in 2% DMSO (v/v) in the same buffer. Titrations were performed at 25 °C and consisted of a single initial injection of 0.4 µL, followed by 19 injections of 2 µL of compound into a sample cell containing wild-type or mutant PPM1D, with an interval of 150 s between successive injections. The reference power and stirring speed were set at […] and 1000 RPM, respectively. Heat of dilution and mixing were obtained from injections of analog 1d into ITC buffer lacking protein and subtracted from the integrated data before curve fitting. Thermodynamic data were analyzed using Origin 7.0 software and fitted by non-linear regression to the model for a single binding site.

PPM1D1–420 [2] = target: T1, PPM1D1–420; test: Hydrogen–deuterium exchange mass spectrometry (HDX-MS)
Description: Hydrogen–deuterium exchange in PPM1D proteins (PPM1D1–420, PPM1D∆Flap, and PPM1D∆Hinge) was monitored by incubating 27 pmoles of protein in storage buffer (50 mM Tris HCl pH 7.4, 500 mM NaCl, 10% glycerol, 10 mM MgCl2, 1 mM TCEP, H2O) with a 10-fold molar excess of GSK2830371 (270 pmoles) in DMSO, or 3.85% DMSO as a control. Due to the low solubility of the compound, the exact molar excess was unknown. […] The slow off-rate of the compound likely plays a role in this. The PPM1D:GSK/DMSO mix equilibrated for 15 min at room temperature, followed by the addition of a 15-fold excess of labeling buffer (20 mM HEPES, pD 7.5, 25 mM NaCl, 5 mM MgCl2, 0.1 mM TCEP, D2O) at 25 °C. Analysis of C-terminal truncations of PPM1D were performed without the DMSO and preincubation step. […]
All samples were digested immediately after quench by injecting directly into an M-class nanoAcquity UPLC with HDX technology (Waters) for online digestion with an Enzymate BEH pepsin column [2.1 × 30 mm, 5 μm (Waters)] and UPLC peptide separation. […] Back-exchange was calculated based on deuterium uptake observed in peptides within PPM1D that are solvent accessible, lack structure, and display these characteristics in their uptake profile (high deuterium incorporation that remains a flat line over 4 h time course). […]

**Q.** With Cc1ncc(Cl)cc1NCc1ccc(C(=O)N[C@@H](CC2CCCC2)C(=O)NC2CC2)s1 [GSK2830371] as the molecule, how does the DH (PPM1D1–420 [1]; Average of 3 trials) read?
**A.** -3090.67

**Q.** And the DS (PPM1D1–420 [1]; Average of 3 trials)?
**A.** 26.3

**Q.** What about the DH (PPM1D1–420 [1]; individual trials) of the same molecule?
**A.** -2879 and -3158 and -3235

**Q.** What about the DS (PPM1D1–420 [1]; individual trials) of the same molecule?
**A.** 27.7 and 25.8 and 25.4

**Q.** What about the “protein in the exposed population (bimodal distribution, residues 270-278) in presence of compound” value (PPM1D1–420 [2]) of the same molecule?
**A.** > 95%

From paper PMC9246869, “Allosteric inhibition of PPM1D serine/threonine phosphatase via an altered conformational state” (Nature Communications, 2022)
